The subject of the assay is M. tuberculosis H37Rv growth inhibition. Kind of assay: Mycobacterium tuberculosis H37Rv growth inhibition, cell based, confirmatory dose response (AID 1949).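 Further: bacteria grown 7 days with compound before Alamar blue readout.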

Each structure is given as a SMILES string. In brackets after ≈: the same amount, converted by molar mass. Inconclusive results are not listed. Activity calls are given as the source filed them. How the calls were made is not given here.

A word on the IC50: it is the concentration at which inhibition is half-maximal. With `CCn1c(NCc2c(O)ccc3ccccc23)nc2ccccc21`, the half-inhibitory concentration (IC50) is 2.05 mg/L (≈ 6.46 µM).
The same measure for `CCCCSc1ccc(NCCC(=O)c2ccco2)cc1`: 0.42 mg/L (≈ 1.38 µM); for `O=C(Nc1cccc([N+](=O)[O-])c1)Nc1ccc(Cl)c(C(F)(F)F)c1`: 0.19 mg/L (≈ 0.528 µM); for `CCn1c(-c2ccco2)nc2ccccc21`: 2.39 mg/L (≈ 11.3 µM).
To `Cc1[nH]n(-c2ccccc2)c(=S)c1C=Nc1ccccc1O` belongs 2.35 mg/L (≈ 7.6 µM).
To `CCN(CC)CCn1c(=N)n(CC(O)COc2ccc(Cl)cc2Cl)c2ccccc21` (stereo unspecified) belongs 1.38 mg/L (≈ 3.06 µM).
With `Oc1ccccc1CNCCC12CC3CC(CC(C3)C1)C2`, the IC50 was > 50 mg/L (inactive).
In the case of `Cc1ccc(Cn2c(=N)n(CC(O)c3ccc(Cl)c(Cl)c3)c3ccccc32)cc1` (stereo unspecified), the IC50 was 2.89 mg/L (≈ 6.78 µM).
To `CN(C)S(=O)(=O)c1ccc(NC(=S)NC(=O)CCCOc2ccc(Cl)cc2Cl)cc1` belongs 5.38 mg/L (≈ 11 µM); to `COc1cccc(OC)c1C(=O)Nc1ccc(Cl)c(-c2nc3ccccc3s2)c1`, 1.49 mg/L (≈ 3.51 µM); to `CCCCn1c(O)c(/C=C2\C=CC=N2)c(=O)[nH]c1=O`, < 0.1 mg/L.
To `COc1cc(/C=C/[N+](=O)[O-])ccc1OC(=O)c1ccco1` belongs 22.6 mg/L (≈ 78.1 µM); to `COc1ccc(Nc2cc(C)nc3c2ccc2ccccc23)cc1`, 1.62 mg/L (≈ 5.15 µM).
To `COC(=O)c1ccc(NC(=O)CSc2nnc(Cc3ccc(OC)cc3)o2)cc1` belongs 11.1 mg/L (≈ 26.8 µM).
As to `O=C(CCc1nc(-c2ccc(Cl)cc2)no1)OCc1ccc(Br)cc1`, the IC50 is > 50 mg/L (inactive).
The same measure for `CCOC(=O)c1ccc(NC(=O)c2ccc(C)s2)cc1`: 2.22 mg/L (≈ 7.67 µM).
With `CC(=O)c1ccc2[nH]c3ccc(C(C)=O)cc3c2c1`, the IC50 was 0.2 mg/L (≈ 0.796 µM).
To `COc1ccc(C(=O)NC(=S)NNC(=O)c2ccc(OC)c(OC)c2)cc1Br` belongs < 0.1 mg/L.
Regarding `CCOC(=O)COc1ccc(S(=O)(=O)Nc2cccc(SC)c2)cc1`, the IC50 was 3.69 mg/L (≈ 9.67 µM).
To `CC(C)C(=O)Nc1ccc(C(=O)Oc2ccccc2)c(O)c1` belongs < 0.1 mg/L; to `CCOC(=O)COc1ccc2cc(-c3nc4ccccc4s3)c(=O)oc2c1`, 1.35 mg/L (≈ 3.54 µM); to `CCOC(=O)COc1ccc2c(=O)c(Oc3cnn(-c4ccccc4)c3)c(C)oc2c1`, 0.61 mg/L (≈ 1.45 µM).
To `O=C(CC12CC3CC(CC(C3)C1)C2)NC(=S)Nc1ccc(-c2nc3ccccc3[nH]2)cc1` belongs 1.46 mg/L (≈ 3.28 µM); to `CCOC(=O)COc1ccc2c(=O)c(-c3ccc(OC)cc3)c(C)oc2c1`, 1.29 mg/L (≈ 3.5 µM); to `O=C(CCN1CCC(c2ccccc2)C1)c1ccco1` (stereo unspecified), > 50 mg/L (inactive).
To `CC(C)(C)c1cc(Cl)c(O)c(NC(=S)NC(=O)c2ccc(Cl)cc2)c1` belongs < 0.1 mg/L.
For `CCc1nccn1S(=O)(=O)c1ccccc1[N+](=O)[O-]`, the IC50 is > 50 mg/L (inactive).
To `N#Cc1ccccc1-c1ccc(/C=C/[N+](=O)[O-])o1` belongs > 50 mg/L (inactive); to `CCOC(=O)/C(C#N)=C/c1ccc(-c2ccc(F)cc2)o1`, 0.25 mg/L (≈ 0.876 µM); to `COc1ccc(-n2nc3ccc(NC(=O)c4ncn[nH]4)cc3n2)cc1Cl`, > 50 mg/L (inactive).
To `CC(C)c1ccc(OCC(=O)Nc2nc(C(C)(C)C)cs2)cc1` belongs 3.87 mg/L (≈ 11.6 µM).
The same measure for `Cc1ccc(C(=O)Nc2nc(-c3ccccc3)c(-c3ccccc3)o2)cc1`: < 0.1 mg/L; for `Cc1ccc(C(=O)NC(=S)Nc2cccc(NC(=O)c3cccs3)c2)c(C)c1`: 6.96 mg/L (≈ 17 µM).
Take `Cc1ccc(OCC(=O)c2ccc(C)cc2)cc1`: the IC50 was 50 mg/L (≈ 208 µM).
To `Cc1ccc(C(=O)NC(=S)Nc2ccc(S(=O)(=O)NC(C)C)cc2)cc1Br` belongs 3.75 mg/L (≈ 7.97 µM); to `Cc1ccc(-c2nc(NC(=O)CO)cs2)cc1`, 0.36 mg/L (≈ 1.45 µM); to `CC1(C)Oc2ccc3ccc(=O)oc3c2C(C=O)=C1Cl`, 1.03 mg/L (≈ 3.54 µM).
To `Cc1ccc(NC(=S)c2ccccn2)cc1` belongs 0.99 mg/L (≈ 4.34 µM); to `CC(C)Oc1ccc(Nc2ncnc3ccc(Br)cc23)cc1`, 2.5 mg/L (≈ 6.98 µM).
To `CC(=O)C1=C(C)NC(SCC(=O)Nc2nc3ccccc3s2)=C(C#N)C1c1ccc(Cl)cc1` (stereo unspecified) belongs 4.1 mg/L (≈ 8.28 µM); to `CCOc1cc(CNC(C)C23CC4CC(CC(C4)C2)C3)cc(Cl)c1OCC(=O)NC(C)(C)C` (stereo unspecified), 3.06 mg/L (≈ 6.41 µM); to `CCC(C)c1ccc(OCCCCn2ccnc2)cc1` (stereo unspecified), 1.12 mg/L (≈ 4.11 µM).
`c1ccc(Nc2nc(Nc3ccccc3)nc(N3CCNCC3)n2)cc1`: the IC50 is 3.99 mg/L (≈ 11.5 µM).
To `CCCCOc1ccc(S(=O)(=O)Nc2ccc(Cl)cc2)cc1` belongs 4.09 mg/L (≈ 12 µM); to `CCOC(=O)COc1ccc2c(C)c(CC(=O)OC)c(=O)oc2c1`, 35 mg/L (≈ 105 µM).
To `Cc1cccc(C(=O)NC(=S)Nc2ccc([N+](=O)[O-])cc2O)c1` belongs 0.19 mg/L (≈ 0.573 µM); to `COc1ccccc1/C=C/c1nn2c(-c3ccc(C)cc3)nnc2s1`, 45.6 mg/L (≈ 131 µM).
The same measure for `O=C(CC1(O)C(=O)N(CCc2ccccc2)c2ccc(Cl)cc21)c1ccc(Cl)s1` (stereo unspecified): 5.18 mg/L (≈ 11.6 µM); for `CC(=O)c1ccc(NC(=O)Nc2cc(OCC(F)(F)F)cc(OCC(F)(F)C(F)F)c2)cc1`: 2.74 mg/L (≈ 5.68 µM).
As to `O=c1[nH]c(/C=C/c2cccc3ccccc23)nc(O)c1[N+](=O)[O-]`, the IC50 is 2.8 mg/L (≈ 9.05 µM).
`O=S1(=O)C=CC2ON=C(c3ccc(C(F)(F)F)cc3)C21` (stereo unspecified): the IC50 is 3.08 mg/L (≈ 10.2 µM).
